Test results published in the NIST ThermoML archive (doi:10.1021/je401095k).
Numbers after ± are expanded uncertainties.

Assays:
[1] = 293.2 K; 101.33 kPa; Liquid; Vibrating tube method
[2] = refractive index (Na D-line) (dimensionless); settings: 293.2 K; 101.33 kPa; Liquid; Standard Abbe refractometry

mass density [1] [kg/m3]	refractive index [2]	SMILES
	1.3324 ± 0.0008	O [water]
952.68 ± 0.23	1.3977 ± 0.0008	CCCC(=O)O [butanoic acid]
1219.5 ± 0.42	1.371 ± 0.0008	O=CO [formic acid]

The next lines start with the compound.

SMILES	mass density [1] [kg/m3]	refractive index [2]
CC(=O)OCCC(C)C [3-methylbutyl ethanoate]	866.71 ± 0.24	1.3976 ± 0.0008
CC(=O)CCC(C)C [5-methyl-2-hexanone]	887.92 ± 0.24	1.4051 ± 0.0008
